The subject of the experiment is Swiss mice, Sarcoma 180 sc, mean tumor weight T/C. As to the kind of experiment: NCI In Vivo Anticancer Drug Screen. Data for tumor model Sarcoma 180 (subcutaneous) in Swiss mice. Conditions: endpoint: mean tumor weight, higher = larger tumour. In a few lines: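 Antitumor activity is assessed in mice with transplantable tumors. Treated (T) and vehicle control (C) groups are compared on survival or tumor size.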

[1] abbreviates: dose: 100.0 mg/kg/injection, schedule: Q01DX007 (ip), vehicle: saline.

Molecules are shown by their SMILES. Several values for one entry are separate records, joined by “and”; a condition that tells them apart may be missing. Equal entries are not always repeated.

Regarding `C=CCOc1ccc2c(c1)CC[C@@H]1[C@@H]2CC[C@]2(C)[C@@H](O)[C@@H](O)C[C@@H]12`, the T/C (as a rule, the ratio of treated to control) runs as follows: (dose: 0.25 mg/kg/injection, schedule: Q#A X014 (sc), vehicle: steriod suspending solution) 90 % of control; (dose: 0.5 mg/kg/injection, schedule: Q01DX007 (sc), vehicle: steriod suspending solution) 106 % of control; (dose: 1.25 mg/kg/injection, schedule: Q01DX007 (sc), vehicle: steriod suspending solution) 77 % of control; (dose: 1.25 mg/kg/injection, schedule: Q#A X014 (sc), vehicle: steriod suspending solution) 68 % of control; (dose: 2.5 mg/kg/injection, schedule: Q01DX007 (sc), vehicle: steriod suspending solution) 91 % of control; (dose: 2.5 mg/kg/injection, schedule: Q#A X014 (ip), vehicle: methylcellulose (MC)) 84 % of control. For the same molecule, the T/C (dose: 2.5 mg/kg/injection, schedule: Q#A X014 (sc), vehicle: steriod suspending solution) is 36 % of control and the T/C (dose: 10.0 mg/kg/injection, schedule: Q#A X014 (sc), vehicle: steriod suspending solution) was 60 % of control.
`CC(=O)Nc1c(Cl)c(Cl)c2c(c1Cl)Cc1cc(Cl)c(Cl)cc1-2`: the T/C by setting is: (dose: 3.1 mg/kg/injection, schedule: Q01DX007 (ip), vehicle: carboxymethylcellulose (CMC)) 35 % of control; (dose: 6.2 mg/kg/injection, schedule: Q01DX007 (ip), vehicle: carboxymethylcellulose (CMC)) 52 % of control; (dose: 12.5 mg/kg/injection, schedule: Q01DX007 (ip), vehicle: carboxymethylcellulose (CMC)) 48 % of control and 54 % of control; (dose: 21.0 mg/kg/injection, schedule: Q01DX007 (ip), vehicle: other) 63 % of control; (dose: 32.0 mg/kg/injection, schedule: Q01DX007 (ip), vehicle: other) 39 % of control; (dose: 33.0 mg/kg/injection, schedule: Q01DX007 (ip), vehicle: other) 49 % of control. The T/C (dose: 48.0 mg/kg/injection, schedule: Q01DX007 (ip), vehicle: other) was 77 % of control; the T/C (dose: 49.0 mg/kg/injection, schedule: Q01DX007 (ip), vehicle: other) was 40 % of control; the T/C (dose: 73.0 mg/kg/injection, schedule: Q01DX007 (ip), vehicle: other) was 31 % of control; the T/C (dose: 250.0 mg/kg/injection, schedule: Q01DX007 (ip), vehicle: other) was 21 % of control and 43 % of control.
As to `CN(C)[C@@H]1C(=O)C(C(=O)NCNC(CO)(CO)CO)=C(O)[C@@]2(O)C(=O)C3=C(O)c4c(O)cccc4[C@@](C)(O)[C@H]3C[C@@H]12`, the T/C runs as follows: (dose: 55.0 mg/kg/injection, schedule: Q#A X014 (ip), vehicle: saline) 65 % of control; (dose: 83.0 mg/kg/injection, schedule: Q#A X014 (ip), vehicle: saline) 93 % of control; (dose: 100.0 mg/kg/injection, schedule: Q01DX007 (ip), vehicle: methylcellulose (MC)) 83 % of control; under setting [1], 119 % of control; (dose: 125.0 mg/kg/injection, schedule: Q#A X014 (ip), vehicle: saline) 52 % of control; (dose: 140.0 mg/kg/injection, schedule: Q01DX007 (ip), vehicle: methylcellulose (MC)) 62 % of control. The T/C is, setting by setting: (dose: 140.0 mg/kg/injection, schedule: Q01DX007 (ip), vehicle: saline) 83 % of control; (dose: 210.0 mg/kg/injection, schedule: Q01DX007 (ip), vehicle: methylcellulose (MC)) 38 % of control; (dose: 210.0 mg/kg/injection, schedule: Q01DX007 (ip), vehicle: other) 86 % of control; (dose: 210.0 mg/kg/injection, schedule: Q01DX007 (ip), vehicle: saline) 65 % of control; (dose: 320.0 mg/kg/injection, schedule: Q01DX007 (ip), vehicle: methylcellulose (MC)) 33 % of control.
For the molecule `COC12C(COC(N)=O)C3=C(C(=O)C(C)=C(N)C3=O)N1CC1C2N1C` (stereo unspecified), the T/C is, setting by setting: (dose: 0.62 mg/kg/injection, schedule: Q#A X014 (ip), vehicle: carboxymethylcellulose (CMC)) 62 % of control; (dose: 1.25 mg/kg/injection, schedule: Q#A X014 (ip), vehicle: carboxymethylcellulose (CMC)) 123 % of control; (dose: 7.5 mg/kg/injection, schedule: Q#A X014 (ip), vehicle: carboxymethylcellulose (CMC)) 65 % of control; (dose: 15.0 mg/kg/injection, schedule: Q#A X014 (ip), vehicle: carboxymethylcellulose (CMC)) 6 % of control and 16 % of control and 25 % of control; (dose: 20.0 mg/kg/injection, schedule: Q#A X014 (ip), vehicle: carboxymethylcellulose (CMC)) 2 % of control.
Consider `CCCCCCCCCCCCCCCCNc1cccc2ccccc12`, for which the T/C is 64 % of control and 82 % of control (dose: 111.0 mg/kg/injection, schedule: Q#A X014 (ip), vehicle: methylcellulose (MC)); 49 % of control and 66 % of control (dose: 166.5 mg/kg/injection, schedule: Q#A X014 (ip), vehicle: methylcellulose (MC)); 41 % of control (dose: 250.0 mg/kg/injection, schedule: Q#A X014 (ip), vehicle: methylcellulose (MC)).
For the molecule `NNc1nnc(NN)c2ccccc12`, the T/C is 167 % of control (dose: 31.25 mg/kg/injection, schedule: Q01DX007 (ip), vehicle: saline); 176 % of control (dose: 62.5 mg/kg/injection, schedule: Q01DX007 (ip), vehicle: saline); 119 % of control (dose: 125.0 mg/kg/injection, schedule: Q01DX007 (ip), vehicle: saline).
Regarding `COc1ccc(-c2cc(=O)c3c(O)c(OC)c(O)cc3o2)cc1`, the T/C is 73 % of control (dose: 25.0 mg/kg/injection, schedule: Q01DX007 (ip), vehicle: saline); 79 % of control (dose: 50.0 mg/kg/injection, schedule: Q01DX007 (ip), vehicle: saline); 85 % of control under setting [1].
With `CCOC(=O)CCCc1ccc(N=NN(C)C)cc1`, the T/C is, setting by setting: (dose: 20.0 mg/kg/injection, schedule: Q01DX007 (ip), vehicle: saline) 99 % of control; (dose: 30.0 mg/kg/injection, schedule: Q01DX007 (ip), vehicle: saline) 69 % of control; (dose: 40.0 mg/kg/injection, schedule: Q01DX007 (ip), vehicle: saline) 63 % of control; (dose: 60.0 mg/kg/injection, schedule: Q01DX007 (ip), vehicle: saline) 68 % of control; (dose: 75.0 mg/kg/injection, schedule: Q01DX007 (ip), vehicle: saline) 38 % of control; under setting [1], 44 % of control. Besides, the T/C is, setting by setting: (dose: 150.0 mg/kg/injection, schedule: Q01DX007 (ip), vehicle: saline) 31 % of control; (dose: 200.0 mg/kg/injection, schedule: Q01DX007 (ip), vehicle: saline) 12 % of control.
For the molecule `CC(C)CC(C#N)C(N)=O` (stereo unspecified), the T/C (dose: 7.5 mg/kg/injection, schedule: Q01DX007 (ip), vehicle: methylcellulose (MC)) was 108 % of control and the T/C (dose: 30.0 mg/kg/injection, schedule: Q01DX007 (ip), vehicle: methylcellulose (MC)) is 96 % of control.
As to `COc1ccc(-c2ccc(OC)c(OC)c2OC)c(N)c1`, the T/C reads like this: (dose: 65.0 mg/kg/injection, schedule: Q01DX007 (ip), vehicle: methylcellulose (MC)) 98 % of control; (dose: 125.0 mg/kg/injection, schedule: Q01DX007 (ip), vehicle: methylcellulose (MC)) 97 % of control; (dose: 250.0 mg/kg/injection, schedule: Q01DX007 (ip), vehicle: methylcellulose (MC)) 87 % of control; (dose: 500.0 mg/kg/injection, schedule: Q01DX007 (ip), vehicle: methylcellulose (MC)) 63 % of control; (dose: 625.0 mg/kg/injection, schedule: Q01DX007 (ip), vehicle: methylcellulose (MC)) 58 % of control; (dose: 750.0 mg/kg/injection, schedule: Q01DX007 (ip), vehicle: methylcellulose (MC)) 86 % of control.
For `C=CCn1cnc2c(=S)nc[nH]c21`, the T/C runs as follows: (dose: 31.0 mg/kg/injection, schedule: Q01DX007 (ip), vehicle: carboxymethylcellulose (CMC)) 86 % of control; (dose: 62.0 mg/kg/injection, schedule: Q01DX007 (ip), vehicle: carboxymethylcellulose (CMC)) 54 % of control.
In the case of `C[C@H]1C[C@@H]2[C@H](C(=O)C[C@@]3(C)[C@H]2CC[C@]3(O)C(=O)CO)[C@@]2(C)C=CC(=O)C=C12`, the T/C is 41 % of control (dose: 221.0 mg/kg/injection, schedule: Q01DX007 (sc), vehicle: steriod suspending solution); 43 % of control and 65 % of control (dose: 330.0 mg/kg/injection, schedule: Q01DX007 (sc), vehicle: steriod suspending solution); 13 % of control (dose: 739.0 mg/kg/injection, schedule: Q01DX007 (sc), vehicle: steriod suspending solution).
Regarding `O=S(c1ccc(Cl)cc1)c1ccc(Cl)cc1`, the T/C reads like this: (dose: 250.0 mg/kg/injection, schedule: Q01DX007 (ip), vehicle: carboxymethylcellulose (CMC)) 105 % of control; (dose: 500.0 mg/kg/injection, schedule: Q01DX007 (ip), vehicle: carboxymethylcellulose (CMC)) 96 % of control.

Source of the values: PubChem BioAssay AID342 (DTP/NCI, 2004).
